Test results as given in PMC3764405, “Synthesis and evaluation of a ^125I-labeled iminodihydroquinoline-derived tracer for imaging of voltage-gated sodium channels^” (Bioorganic & Medicinal Chemistry Letters, 2013).

Target: T1, human Nav1.2 isoform (hNav1.2) (Homo sapiens, UniProt Q99250)
T1 construct: gene SCN2A
Assay: automated patch clamp, CHO cells transfected with hNav1.[…]
Type: cell-based

T1 sequence (Q99250 whole entry, canonical isoform): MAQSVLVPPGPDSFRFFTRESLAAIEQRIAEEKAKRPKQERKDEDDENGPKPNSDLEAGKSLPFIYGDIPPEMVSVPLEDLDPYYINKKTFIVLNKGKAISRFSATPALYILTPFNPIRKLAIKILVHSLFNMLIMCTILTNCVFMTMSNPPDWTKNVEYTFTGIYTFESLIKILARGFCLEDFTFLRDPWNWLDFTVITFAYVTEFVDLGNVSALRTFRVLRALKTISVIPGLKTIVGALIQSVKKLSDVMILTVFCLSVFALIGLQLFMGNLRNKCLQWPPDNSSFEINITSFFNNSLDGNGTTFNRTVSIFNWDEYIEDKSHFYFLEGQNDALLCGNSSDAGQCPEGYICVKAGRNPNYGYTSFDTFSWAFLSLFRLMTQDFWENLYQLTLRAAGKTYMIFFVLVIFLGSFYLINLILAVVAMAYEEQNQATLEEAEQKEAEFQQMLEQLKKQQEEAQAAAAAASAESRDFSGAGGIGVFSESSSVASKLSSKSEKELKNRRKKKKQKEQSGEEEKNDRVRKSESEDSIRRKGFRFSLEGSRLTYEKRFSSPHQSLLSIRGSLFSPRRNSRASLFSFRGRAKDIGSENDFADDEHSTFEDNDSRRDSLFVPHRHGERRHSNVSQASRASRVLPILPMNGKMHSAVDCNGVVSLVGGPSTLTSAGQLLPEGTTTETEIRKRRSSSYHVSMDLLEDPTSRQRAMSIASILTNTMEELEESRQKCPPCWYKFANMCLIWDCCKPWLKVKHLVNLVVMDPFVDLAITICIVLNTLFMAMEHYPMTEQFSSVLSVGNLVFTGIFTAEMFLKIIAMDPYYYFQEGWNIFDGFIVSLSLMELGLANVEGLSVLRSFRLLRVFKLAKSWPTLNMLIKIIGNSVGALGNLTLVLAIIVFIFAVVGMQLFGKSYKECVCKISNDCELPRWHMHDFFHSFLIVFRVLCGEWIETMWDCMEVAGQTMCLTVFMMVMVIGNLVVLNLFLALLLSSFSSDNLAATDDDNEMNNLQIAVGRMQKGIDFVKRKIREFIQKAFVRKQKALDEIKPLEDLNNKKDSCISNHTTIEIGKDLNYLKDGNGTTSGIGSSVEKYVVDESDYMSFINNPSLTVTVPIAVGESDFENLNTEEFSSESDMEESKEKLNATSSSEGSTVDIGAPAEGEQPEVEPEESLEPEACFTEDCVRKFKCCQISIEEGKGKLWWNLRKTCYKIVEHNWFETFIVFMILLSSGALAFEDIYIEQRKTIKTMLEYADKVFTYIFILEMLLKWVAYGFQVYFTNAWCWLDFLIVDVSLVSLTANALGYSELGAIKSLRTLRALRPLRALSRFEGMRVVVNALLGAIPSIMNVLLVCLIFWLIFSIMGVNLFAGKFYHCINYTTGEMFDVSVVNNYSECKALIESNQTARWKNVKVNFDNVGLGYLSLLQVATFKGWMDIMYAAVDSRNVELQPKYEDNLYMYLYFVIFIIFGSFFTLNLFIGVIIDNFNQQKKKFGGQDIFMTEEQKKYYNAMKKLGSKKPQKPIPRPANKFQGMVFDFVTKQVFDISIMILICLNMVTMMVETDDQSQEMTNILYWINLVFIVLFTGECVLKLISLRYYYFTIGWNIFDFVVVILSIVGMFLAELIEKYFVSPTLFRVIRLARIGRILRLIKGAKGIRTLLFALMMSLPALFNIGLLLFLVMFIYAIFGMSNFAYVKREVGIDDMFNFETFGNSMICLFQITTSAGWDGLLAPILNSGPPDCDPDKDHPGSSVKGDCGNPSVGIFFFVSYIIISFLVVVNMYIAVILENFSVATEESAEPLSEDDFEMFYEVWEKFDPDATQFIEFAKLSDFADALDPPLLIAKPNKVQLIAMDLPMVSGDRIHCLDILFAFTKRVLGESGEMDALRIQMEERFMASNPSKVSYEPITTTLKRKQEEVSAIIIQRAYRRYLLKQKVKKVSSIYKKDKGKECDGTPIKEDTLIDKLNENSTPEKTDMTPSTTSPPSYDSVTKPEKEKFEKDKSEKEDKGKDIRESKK

Row | Structure (SMILES) | IC50
1 | CCCCCN=c1ccn(Cc2ccccc2)c2cc(Cl)ccc12 [WIN17317-3] | 2200 ± 1200 nM
2 | CCCCCN=c1ccn(Cc2ccccc2)c2cc(I)ccc12 [compound 10, 10] | 1500 ± 500 nM
